Assay results taken from patent US6737383B1, “Herbicidal oxadiazolidines” (priority 1999, dated 2004).

Tests used:
itchgrass [1] = test: Test D itchgrass; assay type: in vivo, Rottboellia exaltata; details: Preemergence, 0 to 100 scale
Summary of the method: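 Scoring used a 0–100 visual injury scale, with 0 meaning no effect and 100 complete control, assessed 14–21 days after application alongside untreated pots. Preemergence treatments went onto sandy loam surfaces of separately potted seeds within a day of sowing.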

dallisgrass [2] = test: Test D dallisgrass; assay type: in vivo, Paspalum dilatatum; details: Preemergence, 0 to 100 scale
Description: (§1) Seeds, tubers, or plant parts of Alexandergrass (Brachiaria plantaginea), bermuda-grass (Cynodon dactylon), common pursiane (Portulaca oleracea), common ragweed (Ambrosia elatior), common groundsel (Senecio vulgaris), dallisgrass (Paspalum dilatatum), goosegrass (Eleusine indica), guineagrass (Panicum maximum), itchgrass (Rottboellia exaltata), Johnson grass (Sorghum halepense), large crabgrass (Digitaria sanguinalis), pitted morningglory (Ipomoea lacunosa), purple nutsedge (Cyperus rotundus), sandbur (Cenchrus echinatus), sourgrass (Trichachne insularis), Spanishneedles (Bidens bipinnata), surinam grass (Brachiaria decumbens) and tall mallow (Malva sylvestris) were planted into greenhouse pots of flats containing greenhouse planting medium. Plant species were grown in separate pots or individual compartments. Preemergence applications were made within one day of planting the seed or plant part.
(§2) Test chemicals were formulated in a non-phytotoxic solvent mixture which included a surfactant and applied preemergence to the surface of the pot containing seeds in a sandy loam soil. Untreated control pots and treated pots were placed in the greenhouse for growth and visually evaluated for injury 14 to 21 days after herbicide application. Plant response ratings, summarized in Table C, are based on a 0 to 100 scale where 0 is no injury and 100 is complete control. A dash (−) response means no test result.

common ragweed = test: Test D common ragweed; assay type: in vivo, Ambrosia elatior; details: Preemergence, 0 to 100 scale
Summary of the method: (§3)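 Values are visual plant-response ratings (0 no injury, 100 complete control) recorded 14 to 21 days after herbicide treatment, using a non-phytotoxic solvent mixture containing surfactant. Preemergence applications went to the surface of pots holding freshly sown seed in sandy loam.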

Alexandergrass [3] = test: Test D Alexandergrass; assay type: in vivo, Brachiaria plantaginea; details: Preemergence, 0 to 100 scale
Description: as §1, §2

large crabgrass = test: Test D large crabgrass; assay type: in vivo, Digitaria sanguinalis; details: Preemergence, 0 to 100 scale
Summary of the method: as §3

itchgrass [4] = test: Test D itchgrass; assay type: in vivo, Rottboellia exaltata; details: Postemergence, 0 to 100 scale
Spanishneedles = test: Test D Spanishneedles; assay type: in vivo, Bidens bipinnata
surinam grass = test: Test D surinam grass; assay type: in vivo, Brachiaria decumbens; details: Postemergence, 0 to 100 scale
common pursiane = test: Test D common purslane; assay type: in vivo, Portulaca oleracea; details: Postemergence, 0 to 100 scale
Green foxtail [5] = test: Test D green foxtail; assay type: in vivo; details: Postemergence, 0 to 100 scale, 0 no injury, 100 complete control
Alexandergrass [6] = test: Test D Alexandergrass; assay type: in vivo, Brachiaria plantaginea; details: Postemergence, 0 to 100 scale
Green foxtail [7] = test: Test D green foxtail; assay type: in vivo; details: Postemergence, 0 to 100 scale, 0 no injury, 100 complete control; remark: listed apart in the source
Johnson grass = test: Test D Johnson grass; assay type: in vivo, Sorghum halepense; details: Postemergence, 0 to 100 scale
guineagrass = test: Test D guineagrass; assay type: in vivo, Panicum maximum; details: Postemergence, 0 to 100 scale
common groundsel = test: Test D common groundsel; assay type: in vivo, Senecio vulgaris; details: Postemergence, 0 to 100 scale
dallisgrass [8] = test: Test D dallisgrass; assay type: in vivo, Paspalum dilatatum; details: Postemergence, 0 to 100 scale
Green foxtail [9] = test: Test D green foxtail; assay type: in vivo; details: Postemergence, 0 to 100 scale, 0 no injury, 100 complete control; remark: listed apart in the source
pitted morningglory = test: Test D pitted morningglory; assay type: in vivo, Ipomoea lacunosa; details: Postemergence, 0 to 100 scale
bermuda-grass = test: Test D bermudagrass; assay type: in vivo, Cynodon dactylon; details: Postemergence, 0 to 100 scale
sandbur = test: Test D sandbur; assay type: in vivo, Cenchrus echinatus; details: Postemergence, 0 to 100 scale
[10] = Rate 32 g/ha, 0 no injury, 100 complete control
[11] = Rate 64 g/ha, 0 no injury, 100 complete control
[12] = Rate 125 g/ha, 0 no injury, 100 complete control
[13] = Rate 16 g/ha, 0 no injury, 100 complete control

Compound: Cc1cccc(C)c1-n1c(=O)on(C(=O)N(c2ccc(F)cc2F)C(C)C)c1=O [Compound 28]
- Plant response rating, Itchgrass (itchgrass [1]; [10]): 0
- Plant response rating, Itchgrass (itchgrass [1]; [11]): 20
- Plant response rating, Itchgrass (itchgrass [1]; [12]): 40
- Plant response rating, Itchgrass (itchgrass [1]; Rate 250 g/ha): 40
- Plant response rating, Dallisgrass (dallisgrass [2]; [10]): 30
- Plant response rating, Dallisgrass (dallisgrass [2]; [11]): 75
- Plant response rating, Dallisgrass (dallisgrass [2]; [12]): 85
- Plant response rating, Dallisgrass (dallisgrass [2]; Rate 250 g/ha): 100
- Plant response rating, C. ragweed (common ragweed; [10]): 0
- Plant response rating, C. ragweed (common ragweed; [11]): 0
- Plant response rating, C. ragweed (common ragweed; [12]): 0
- Plant response rating, C. ragweed (common ragweed; Rate 250 g/ha): 0
- Plant response rating, Alexandergrass (Alexandergrass [3]; [10]): 0
- Plant response rating, Alexandergrass (Alexandergrass [3]; [11]): 0
- Plant response rating, Alexandergrass (Alexandergrass [3]; [12]): 60
- Plant response rating, Alexandergrass (Alexandergrass [3]; Rate 250 g/ha): 75
- Plant response rating Large crabgrass (large crabgrass; [10]): 85
- Plant response rating Large crabgrass (large crabgrass; [11]): 98
- Plant response rating Large crabgrass (large crabgrass; [12]): 100
- Plant response rating Large crabgrass (large crabgrass; Rate 250 g/ha): 100

Compound: CCn1c(=O)on(C(=O)N(c2ccc(F)cc2)C(C)C)c1=O [Compound 107]
- Plant response rating, Itchgrass (itchgrass [1]; [13]): 40
- Plant response rating, Itchgrass (itchgrass [1]; [10]): 75
- Plant response rating, Itchgrass (itchgrass [1]; [11]): 85
- Plant response rating, Itchgrass (itchgrass [1]; [12]): 98
- Plant response rating, Itchgrass (itchgrass [1]; Rate 250 g/ha): 100
- Plant response rating, Itchgrass (itchgrass [1]; Rate 500 g/ha): 100
- Plant response rating, Dallisgrass (dallisgrass [2]; [13]): 30
- Plant response rating, Dallisgrass (dallisgrass [2]; [10]): 85
- Plant response rating, Dallisgrass (dallisgrass [2]; [11]): 100
- Plant response rating, Dallisgrass (dallisgrass [2]; [12]): 100
- Plant response rating, Dallisgrass (dallisgrass [2]; Rate 250 g/ha): 100
- Plant response rating, Dallisgrass (dallisgrass [2]; Rate 500 g/ha): 100
- Plant response rating, C. ragweed (common ragweed; [13]): 0
- Plant response rating, C. ragweed (common ragweed; [10]): 0
- Plant response rating, C. ragweed (common ragweed; [11]): 0
- Plant response rating, C. ragweed (common ragweed; [12]): 85
- Plant response rating, C. ragweed (common ragweed; Rate 250 g/ha): 100
- Plant response rating, C. ragweed (common ragweed; Rate 500 g/ha): 100
- Plant response rating, Alexandergrass (Alexandergrass [3]; [13]): 0
- Plant response rating, Alexandergrass (Alexandergrass [3]; [10]): 90
- Plant response rating, Alexandergrass (Alexandergrass [3]; [11]): 100
- Plant response rating, Alexandergrass (Alexandergrass [3]; [12]): 100
- Plant response rating, Alexandergrass (Alexandergrass [3]; Rate 250 g/ha): 100
- Plant response rating, Alexandergrass (Alexandergrass [3]; Rate 500 g/ha): 100
- Plant response rating Large crabgrass (large crabgrass; [13]): 85
- Plant response rating Large crabgrass (large crabgrass; [10]): 98
- Plant response rating Large crabgrass (large crabgrass; [11]): 100
- Plant response rating Large crabgrass (large crabgrass; [12]): 100
- Plant response rating Large crabgrass (large crabgrass; Rate 250 g/ha): 100
- Plant response rating Large crabgrass (large crabgrass; Rate 500 g/ha): 100

Compound: C=C(C)Cn1c(=O)on(C(=O)N(c2ccc(F)cc2)C(C)C)c1=O [Compound 139]
- Plant response rating, Itchgrass (itchgrass [1]; [11]): 20
- Plant response rating, Dallisgrass (dallisgrass [2]; [11]): 90
- Plant response rating, C. ragweed (common ragweed; [11]): 0
- Plant response rating, Alexandergrass (Alexandergrass [3]; [11]): 60
- Plant response rating Large crabgrass (large crabgrass; [11]): 90

Compound: CC(C)N(C(=O)n1oc(=O)n(C2CC2)c1=O)c1ccccc1 [Compound 243]
- Plant response rating, Itchgrass (itchgrass [4]; [13]): 0
- Plant response rating, Itchgrass (itchgrass [4]; [10]): 0
- Plant response rating, Itchgrass (itchgrass [4]; [11]): 0
- Plant response rating, Itchgrass (itchgrass [4]; [12]): 10
- Plant response rating, Itchgrass (itchgrass [4]; Rate 250 g/ha): 100
- Plant response rating, Spanishneedles (Spanishneedles; Postemergence; Rate 32 g/ha; 0 to 100 scale, 0 no injury, 100 complete control): 50
- Plant response rating, Spanishneedles (Spanishneedles; Rate 16 g/ha; Postemergence; 0 to 100 scale, 0 no injury, 100 complete control): 0
- Plant response rating, Spanishneedles (Spanishneedles; Rate 32 g/ha; Postemergence; 0 to 100 scale, 0 no injury, 100 complete control): 0
- Spanishneedles plant response rating (Spanishneedles; Rate 64 g/ha, Postemergence; 0 to 100 scale, 0 no injury, 100 complete control): 50
- Spanishneedles plant response rating (Spanishneedles; Rate 125 g/ha, Postemergence; 0 to 100 scale, 0 no injury, 100 complete control): 20
- Plant response rating, Spanishneedles (Spanishneedles; Rate 250 g/ha; Postemergence; 0 to 100 scale): 100
- Plant response rating, Surinam grass (surinam grass; [13]): 0
- Plant response rating, Surinam grass (surinam grass; [10]): 20
- Surinam grass plant response rating (surinam grass; [11]): 90
- Surinam grass plant response rating (surinam grass; [12]): 100
- Plant response rating, Surinam grass (surinam grass; Rate 250 g/ha): 100
- Plant response rating, C. purslane (common pursiane; [13]): 0
- Plant response rating, C. purslane (common pursiane; [10]): 0
- Plant response rating, C. purslane (common pursiane; [11]): 0
- Plant response rating, C. purslane (common pursiane; [12]): 0
- Plant response rating, C. purslane (common pursiane; Rate 250 g/ha): 0
- Plant response rating, Green foxtail (Green foxtail [5]; Rate 16 g/ha): 10
- Plant response rating, Green foxtail (Green foxtail [5]; Rate 32 g/ha): 100
- Plant response rating, Alexandergrass (Alexandergrass [6]; [13]): 0
- Plant response rating, Alexandergrass (Alexandergrass [6]; [10]): 0
- Plant response rating, Alexandergrass (Alexandergrass [6]; [11]): 20
- Plant response rating, Alexandergrass (Alexandergrass [6]; [12]): 100
- Plant response rating, Alexandergrass (Alexandergrass [6]; Rate 250 g/ha): 100
- Plant response rating, Green foxtail (Green foxtail [7]; Rate 64 g/ha): 100
- Plant response rating, Green foxtail (Green foxtail [7]; Rate 125 g/ha): 100
- Plant response rating Johnsongrass (Johnson grass; [13]): 0
- Plant response rating Johnsongrass (Johnson grass; [10]): 0
- Plant response rating Johnsongrass (Johnson grass; [11]): 0
- Plant response rating Johnsongrass (Johnson grass; [12]): 30
- Plant response rating Johnsongrass (Johnson grass; Rate 250 g/ha): 100
- Plant response rating, Guineagrass (guineagrass; [13]): 0
- Plant response rating, Guineagrass (guineagrass; [10]): 0
- Guineagrass plant response rating (guineagrass; [11]): 0
- Plant response rating, Guineagrass (guineagrass; [11]): 20
- Plant response rating, Guineagrass (guineagrass; [12]): 100
- Plant response rating, Guineagrass (guineagrass; Rate 250 g/ha): 100
- Plant response rating, Com. groundsel (common groundsel; [13]): 0
- Plant response rating, Com. groundsel (common groundsel; [10]): 0
- Plant response rating, Com. groundsel (common groundsel; [11]): 0
- Plant response rating, Com. groundsel (common groundsel; [12]): 100
- Plant response rating, Com. groundsel (common groundsel; Rate 250 g/ha): 100
- Plant response rating, Dallisgrass (dallisgrass [8]; [13]): 0
- Plant response rating, Dallisgrass (dallisgrass [8]; [10]): 50
- Plant response rating, Dallisgrass (dallisgrass [8]; [11]): 70
- Plant response rating, Dallisgrass (dallisgrass [8]; [12]): 100
- Plant response rating, Dallisgrass (dallisgrass [8]; Rate 250 g/ha): 100
- Green foxtail plant response rating (Green foxtail [9]; Rate 64 g/ha): 100
- Green foxtail plant response rating (Green foxtail [9]; Rate 125 g/ha): 100
- Plant response rating, P. morninglory (pitted morningglory; [13]): 0
- Plant response rating, P. morninglory (pitted morningglory; [10]): 0
- Plant response rating, P. morninglory (pitted morningglory; [11]): 0
- Plant response rating, P. morninglory (pitted morningglory; [12]): 0
- Plant response rating, P. morninglory (pitted morningglory; Rate 250 g/ha): 40
- Plant response rating, Bermudagrass (bermuda-grass; [13]): 20
- Plant response rating, Bermudagrass (bermuda-grass; [10]): 60
- Plant response rating, Bermudagrass (bermuda-grass; [11]): 100
- Plant response rating, Bermudagrass (bermuda-grass; [12]): 100
- Plant response rating, Bermudagrass (bermuda-grass; Rate 250 g/ha): 100
- Plant response rating, Sandbur (sandbur; [13]): 10
- Plant response rating, Sandbur (sandbur; [10]): 20
- Sandbur plant response rating (sandbur; [11]): 30
- Sandbur plant response rating (sandbur; [12]): 30
- Plant response rating, Sandbur (sandbur; Rate 250 g/ha): 100
